{"source": "patent US6399819B1", "about": "“Process for purifying creatine” (BASF Aktiengesellschaft, priority 1999, dated 2002)", "origin": "cited, not measured here", "settings": "recrystallization from water", "data": [{"molecule": "CN(CC(=O)O)C(=N)N", "note": "[creatine]", "values": [{"measurement": "temperature above which decomposition of creatine to creatinine and N-methylhydantoin increases to a level no longer acceptable", "result": "about 80 °C"}]}]}
